{"source": "patent US8114843B2", "about": "“Photoreactive regulator of protein function and methods of use thereof” (The Regents of the University of California, priority 2005, dated 2012)", "key": {"[1]": {"system": "basket cells", "experiment": "Loose-patch extracellular recording in cerebellar slices", "format": "cell-based, rat", "settings": "500 nm light; with AMPA, NMDA and GABAA receptor antagonists; n=6", "description": "Brain Slice Preparation. Parasagittal cerebellar slices were prepared using standard techniques approved by the UCLA Animal Care Committee. The cerebellum was removed from the cranium of a 14-20 day old Sprague-Dawley rat, mounted on an agar support and sectioned parasagitally using a vibrotome (Leica VT-1000) while submerged in cold (<4° C.) artificial cerebrospinal fluid (aCSF) containing in mM: 119 NaCl, 26 NaHCO3, 11 glucose, 2.5 KCl, 2.5 CaCl2, 1.3 MgCl2, and 1 NaH2PO4 and saturated with 95% O2 and 5% CO2 Following sectioning, the […] slices were stored in 35° C. aCSF for 30 minutes and brought to room temperature for subsequent electrophysiological experiments.\n(§1) PAL attachment. HEK293 and hippocampal cells were rinsed in extracellular solution containing in mM: 138 NaCl, 1.5 KCl, 1.2 MgCl2, 2.5 CaCl2, 5 HEPES, 10 glucose and incubated at 37° C. in the dark with 200-250 μM PAL for 15 minutes. For slices, AAQ was diluted to 200 μM in aCSF and treatment was performed in the dark at room temperature for 10 minutes.\nFor cerebellar slices, neuronal cell bodies were visualized using an upright microscope with a 40× water immersion lens and equipped with an infrared-DIC enhancement. Loose-patch extracellular recordings were performed using an Axopatch 200B amplifier (Axon Instruments). Electrophysiological recordings were filtered at 1 KHz and digitized at 2-4 KHz. […]"}, "[2]": {"target": "T1, Kv2.1 (Homo sapiens, UniProt Q14721)", "T1 construct": "expressed in transfected cells; host or cells: HEK cells", "T1 sequence (Q14721 1-858)": "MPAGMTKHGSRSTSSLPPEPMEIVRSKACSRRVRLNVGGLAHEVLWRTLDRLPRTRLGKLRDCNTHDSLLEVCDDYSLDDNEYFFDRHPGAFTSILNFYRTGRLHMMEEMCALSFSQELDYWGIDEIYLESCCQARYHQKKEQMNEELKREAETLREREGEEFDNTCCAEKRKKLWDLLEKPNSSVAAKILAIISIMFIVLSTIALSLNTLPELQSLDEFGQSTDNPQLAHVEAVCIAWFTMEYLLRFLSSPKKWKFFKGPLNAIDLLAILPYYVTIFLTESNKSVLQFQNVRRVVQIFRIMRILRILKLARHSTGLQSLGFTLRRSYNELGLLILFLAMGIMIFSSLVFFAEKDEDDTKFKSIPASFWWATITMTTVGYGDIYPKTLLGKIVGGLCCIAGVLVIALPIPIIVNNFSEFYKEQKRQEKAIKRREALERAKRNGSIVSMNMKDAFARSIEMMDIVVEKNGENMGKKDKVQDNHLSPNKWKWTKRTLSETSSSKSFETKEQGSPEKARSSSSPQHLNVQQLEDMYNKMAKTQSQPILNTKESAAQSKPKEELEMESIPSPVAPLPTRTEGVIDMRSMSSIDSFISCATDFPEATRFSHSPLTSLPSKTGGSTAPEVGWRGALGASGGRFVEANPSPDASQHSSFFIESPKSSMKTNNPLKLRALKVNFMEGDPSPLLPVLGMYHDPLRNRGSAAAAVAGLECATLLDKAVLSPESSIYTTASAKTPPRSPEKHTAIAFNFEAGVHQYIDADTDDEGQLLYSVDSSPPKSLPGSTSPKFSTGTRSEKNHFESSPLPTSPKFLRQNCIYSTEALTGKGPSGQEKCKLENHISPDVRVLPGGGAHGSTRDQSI", "experiment": "PAL photoswitching, whole-cell patch clamp in HEK cells", "format": "cell-based", "description": "Cell culture and transfection. HEK293 cells were grown in DMEM containing 5% fetal bovine serum, at 37° C., 7% CO2. For electrophysiology, cells were plated at 12×10^5 cells/cm^2 on poly-L-lysine coated coverslips and transfected using the calcium phosphate method. Recordings were performed 24-36 hours after transfection.\nas §1\nElectrophysiological recording. Recordings from HEK293 and hippocampal neurons were made in the whole-cell patch clamp configuration using a PC-501A amplifier (Warner Instruments). Pulse protocols and measurements were carried out with pCLAMP and a Digidata 1322 interface (Axon Instruments). For voltage-clamp experiment, cells were held at −70 mV. Data was recorded at 20 kHz and filtered at 2 kHz. Recording pipettes with 2.5-4 MΩ resistance were filled with intracellular solution containing in mM: 10 NaCl, 135 K-gluconate, 10 HEPES, 2 MgCl2, 2 MgATP, 1 EGTA, pH 7.4.\nIllumination was provided using a xenon lamp (Sutter Instruments) with narrow band pass filters (380 BP10 for UV and 500 BP5 for visible light respectively). Excitation filters were changed using a lambda 10-2 filter changer (Sutter Instruments) controlled via pCLAMP software.\nPercent photoswitching was defined as the difference between current in UV and visible light divided by current in UV. All data shown in bar graphs are averages±standard error of the mean."}}}
{"smiles": "C=CC(=O)Nc1ccc(/N=N/c2ccc(NC(=O)C[N+](CC)(CC)CC)cc2)cc1", "note": "[AAQ]", "values": [{"measurement": "enhancement of firing frequency", "setting": "[1]", "value": "324±160", "unit": "%"}, {"measurement": "light-sensitivity imparted on channel", "setting": "[2]", "value": "imparted light-sensitivity"}]}
